In paper PMC7928338, “Distribution of Glyphosate-Resistance in Echinochloa crus-galli Across Agriculture Areas in the Iberian Peninsula” (Frontiers in Plant Science, 2021):
pIC50: −log10 of the molar value. Like-named read-outs stand apart in the source and are kept apart here.

Key:
[1] = tested on: 5-enolpyruvylshikimate-3-phosphate synthase (EPSPS), glyphosate-resistant (R) and very resistant (VR) populations; conditions: read-out: I50, glyphosate 0-1000 μM, stated gain
Source text: EPSPS activity in leaf extract, inorganic phosphate release on 5-enolpyruvylshikimate-3-phosphate synthase (EPSPS), glyphosate-resistant (R) and very resistant (VR) populations

[2] = tested on: T1, 5-enolpyruvylshikimate-3-phosphate synthase (EPSPS), glyphosate-susceptible populations; assay: EPSPS activity in leaf extract, inorganic phosphate release; type: biochemical, Echinochloa crus-galli; conditions: population E2 (susceptible); glyphosate 0-1000 μM; read-out: I50
T1 construct: native enzyme in leaf extract; hexaploid species, homoeologous EPSPS copies not distinguished

For `O=C(O)CNCP(=O)(O)O` [glyphosate], the pIC50 ([1]; population E7) was 4.93, the pIC50 ([1]; population E9) was 4.74 and the pIC50 ([1]; population E10, possible EPSPS overexpression) was 4.26. The pIC50 ([1]; population E12, possible EPSPS overexpression) was 4.34 and the pIC50 [2] was 6.10.
